Reference: the supplement of paper PMC9334596
Counter-ions that a name gives are not always drawn.

Tested on: mPer2Luc MEF
Assay: PER2::LUC luminescence relative to vehicle control (fold of vehicle); higher = higher PER2::LUC reporter signal
Procedure: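 Secondary dose-response validation of 72 circadian-modulating compounds in mPer2Luc MEFs, threefold dilution series of six doses from 10 uM down to 0.04 uM. PER2::LUC luminescence read at 24 h and 30 h after treatment, normalised to vehicle (DMSO) control.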

[1] = time after treatment: 24-hour, concentration: 0.04μM
[2] = time after treatment: 24-hour, concentration: 0.37μM
[3] = time after treatment: 24-hour, concentration: 3.33μM
[4] = time after treatment: 24-hour, concentration: 10μM
[5] = time after treatment: 30-hour, concentration: 0.04μM
[6] = time after treatment: 30-hour, concentration: 0.37μM
[7] = time after treatment: 30-hour, concentration: 3.33μM
[8] = time after treatment: 30-hour, concentration: 10μM

SMILES	PER2::LUC luminescence [1]	PER2::LUC luminescence [2]	PER2::LUC luminescence [3]	PER2::LUC luminescence [4]	PER2::LUC luminescence [5]	PER2::LUC luminescence [6]	PER2::LUC luminescence [7]	PER2::LUC luminescence [8]
Cc1ccc(NC(=O)c2cccc(N(C)C)c2)cc1NC(=O)c1ccc(O)cc1	0.95	0.979	1.07	1.36	0.924	0.932	1.01	1.65
COc1cc(C(=O)N2CCC(N3CCN(C)CC3)CC2)ccc1Nc1ncc2c(n1)N(C)c1ccccc1C(=O)N2C [LRRK2-IN-1]	0.815	0.751	0.337	0.1	0.817	0.716	0.351	0.098
O=C(O)c1ccc2c(c1)nc(Nc1cccc(Cl)c1)c1ccncc12 [CX-4945]	1.13	1.06	1.05	0.842	1.11	1.05	1.08	1.06
Nc1nccc(Oc2ccc(NC(=O)c3c[nH]cc(-c4ccc(F)cc4)c3=O)cc2F)c1Cl	1	1.02	1.03	1.12	1.06	1.03	0.929	1
COc1ccc(CCN2CCC(Nc3nc4ccccc4n3Cc3ccc(F)cc3)CC2)cc1 [Astemizole]	0.895	0.815	0.543	0.026	0.783	0.79	0.67	0.009
CN1CCc2c(c3ccccc3n2Cc2ccc(C(=O)NO)cc2)C1 [Tubastatin A HCl]	1.07	1.05	1.05	0.699	0.984	0.982	0.916	0.576
O=C(Cc1ccc(-c2ccc(OCCN3CCOCC3)cc2)cn1)NCc1ccccc1 [KX2-391]	0.85	0.597	0.429	0.365	0.786	0.627	0.497	0.478
NS(=O)(=O)c1ccc(NC(=O)Nc2ccc(F)cc2)cc1 [U-104]	1.04	1.05	1.01	0.876	1.05	1.06	1.06	0.947
O=C(c1ccc(OCCN2CCCCC2)cc1)c1c(-c2ccc(O)cc2)sc2cc(O)ccc12 [Raloxifene HCl]	0.941	0.955	0.814	0.287	1	0.996	0.896	0.512
CCCCN(CCCC)C(=O)CN1C[C@H](c2ccc3c(c2)OCO3)[C@@H](C(=O)O)[C@@H]1c1ccc(OC)cc1 [ATRASENTAN]	1.16	1.17	1.5	2.41	1.19	1.16	1.47	2.31
CC(C)c1cnn2c(NCc3ccccc3)cc(NCCCCCCN)nc12 [BS-181]	1.05	0.946	0.807	0.33	0.972	0.943	0.934	0.422
CN1CCN(c2ccc3nc(-c4c(N)c5c(F)cccc5[nH]c4=O)[nH]c3c2)CC1 [Dovitinib (TKI-258)]	0.917	0.895	0.651	0.477	0.945	0.895	0.609	0.29
O=C1c2ccccc2C(=O)c2oc(-c3ccccc3)nc21 [SJB2-043]	1.11	1.29	1.94	1.65	1.17	1.2	1.36	1.11
CCOc1cc2ncc(C#N)c(Nc3ccc(F)c(Cl)c3)c2cc1NC(=O)/C=C/CN(C)C [Pelitinib (EKB-569)]	0.891	0.933	0.78	0.334	0.836	0.815	0.618	0.227
CCOC(=O)N1c2ccc(C(F)(F)F)cc2[C@@H](N(Cc2cc(C(F)(F)F)cc(C(F)(F)F)c2)C(=O)OC)C[C@H]1CC	0.989	0.984	0.939	0.99	0.935	0.917	0.959	0.943
CC(C)c1onc(-c2c(Cl)cccc2Cl)c1COc1ccc(/C=C/c2cccc(C(=O)O)c2)c(Cl)c1 [GW4064]	1.04	1.08	1.24	1.88	1.08	1.1	1.32	2.19
C[C@@H](O[C@H]1OCCN(Cc2nn(P(=O)(O)O)c(=O)[nH]2)[C@H]1c1ccc(F)cc1)c1cc(C(F)(F)F)cc(C(F)(F)F)c1 [Fosaprepitant dimeglumine]	1.06	1.02	0.627	0.456	0.978	0.951	0.891	0.849
Nc1ncnc2c1C(=O)N(c1ccc([C@H]3CC[C@H](CC(=O)O)CC3)cc1)CCO2	1.04	0.984	1	1	1.03	0.966	1.06	1.01
CC(C)(C)c1ccc(-c2nc3ccccc3[nH]2)cc1 [ZLN005]	0.223	0.131	0.076	0.065	0.357	0.204	0.098	0.075
CN1CCN(S(=O)(=O)c2ccc(-c3cnc(N)c(C(=O)Nc4cccnc4)n3)cc2)CC1 [AZD2858]	1.18	1.37	1.01	0.842	0.938	1.16	0.874	0.676
